From ChEMBL document CHEMBL1201862, “PubChem BioAssay data set” (2004)
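1) Cells in 96-well plates. 2) Compound, 48 h, 5 concentrations. 3) Linear interpolation between surrounding doses. 4) Unreached endpoint = highest concentration. GI50 = concentration required for 50% inhibition of growth.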 The source made the active and inactive calls. Rule as the data show it: active = GI50 up to about 1.1 µM and inactive = higher.

Columns and labels:
Experiment in all cases: growth of human tumour cells (NCI), 48 h
NCI-H460 = system: NCI-H460
Malme-3M = system: Malme-3M
MOLT-4 = system: MOLT-4
SF-539 = system: SF-539
M14 = system: M14
DU-145 = system: DU-145
MDA-MB-435 = system: MDA-MB-435
HOP-62 = system: HOP-62
HCC 2998 = system: HCC 2998
NCI-H23 = system: NCI-H23
LOX IMVI = system: LOX IMVI
IGROV-1 = system: IGROV-1
UACC-62 = system: UACC-62
OVCAR-8 = system: OVCAR-8
OVCAR-3 = system: OVCAR-3
U-251 = system: U-251
SK-MEL-5 = system: SK-MEL-5
RXF 393 = system: RXF 393

Measured: GI50

CCOC(=O)C1(Cc2ccc3c(c2)CCC3)Cc2cc3c(cc2C1)CCC3
inactive: NCI-H460 27.5 µM | Malme-3M 27.2 µM | MOLT-4 11.5 µM | SF-539 29.7 µM | M14 21.5 µM | DU-145 53 µM | MDA-MB-435 35.7 µM | HOP-62 32.9 µM | HCC 2998 22.6 µM | NCI-H23 35.7 µM | LOX IMVI 15.4 µM | IGROV-1 46.8 µM | UACC-62 30.6 µM | OVCAR-8 42.5 µM | OVCAR-3 32.4 µM | U-251 32.3 µM

C[NH+]1[C@@H](Cc2ccccc2)C(=O)O[B-]1(F)c1ccccc1 (stereo partly specified)
inactive: NCI-H460 > 100 µM | Malme-3M > 100 µM | MOLT-4 > 100 µM | M14 > 100 µM | DU-145 > 100 µM | MDA-MB-435 > 100 µM | HOP-62 > 100 µM | SK-MEL-5 > 100 µM | HCC 2998 > 100 µM | NCI-H23 > 100 µM | IGROV-1 > 100 µM | UACC-62 > 100 µM | OVCAR-8 > 100 µM | OVCAR-3 > 100 µM | U-251 > 100 µM

CC(=O)N1C(=O)c2cc3ccccc3cc21
inactive: NCI-H460 > 100 µM | SF-539 > 100 µM | M14 > 100 µM | DU-145 > 100 µM | MDA-MB-435 > 100 µM | HOP-62 63.5 µM | SK-MEL-5 > 100 µM | HCC 2998 > 100 µM | NCI-H23 95.5 µM | LOX IMVI > 100 µM | IGROV-1 38.8 µM | UACC-62 > 100 µM | OVCAR-8 > 100 µM | U-251 > 100 µM

CCOC(=O)[C@@H]1ON2O[C@@H](OC3CCCCC3c3ccccc3)C[C@H]3OC(=O)[C@@H]1C32 (stereo partly specified)
inactive: NCI-H460 38.1 µM | MOLT-4 > 100 µM | SF-539 > 100 µM | M14 > 100 µM | DU-145 > 100 µM | MDA-MB-435 91.2 µM | RXF 393 > 100 µM | HOP-62 > 100 µM | SK-MEL-5 > 100 µM | HCC 2998 66.7 µM | NCI-H23 53.6 µM | LOX IMVI > 100 µM | IGROV-1 > 100 µM | UACC-62 > 100 µM | OVCAR-8 > 100 µM | OVCAR-3 > 100 µM | U-251 > 100 µM

CCCCCCCN(CCCCCCC)CC(O)c1cc2ccccc2c2cc(Br)ccc12 (stereo unspecified)
inactive: NCI-H460 23.1 µM | Malme-3M 19.5 µM | MOLT-4 35.1 µM | SF-539 > 100 µM | M14 22.6 µM | DU-145 8.07 µM | MDA-MB-435 33.1 µM | HOP-62 24.7 µM | HCC 2998 15.2 µM | NCI-H23 36 µM | LOX IMVI 14.2 µM | IGROV-1 62.1 µM | UACC-62 20.4 µM | OVCAR-8 30.3 µM | OVCAR-3 17.9 µM | U-251 18.3 µM

Cc1c(C)c2c(c(N)c1C#N)C(=O)N(NC(=S)Nc1ccccc1)C2=O
inactive: NCI-H460 61.2 µM | Malme-3M 72.9 µM | MOLT-4 20.3 µM | SF-539 49.8 µM | M14 > 100 µM | DU-145 > 100 µM | MDA-MB-435 > 100 µM | RXF 393 46 µM | SK-MEL-5 90.4 µM | HCC 2998 > 100 µM | NCI-H23 > 100 µM | IGROV-1 56.5 µM | UACC-62 > 100 µM | OVCAR-8 45 µM | OVCAR-3 > 100 µM | U-251 > 100 µM

O=C(N/N=C\c1ccc([N+](=O)[O-])s1)c1ccncc1
inactive: NCI-H460 6.65 µM | Malme-3M 8.18 µM | MOLT-4 19.9 µM | SF-539 6.28 µM | M14 11.6 µM | DU-145 20.7 µM | MDA-MB-435 18.4 µM | RXF 393 16.9 µM | HOP-62 14.4 µM | SK-MEL-5 3.25 µM | HCC 2998 5.71 µM | NCI-H23 16.2 µM | IGROV-1 10.3 µM | UACC-62 10.7 µM | OVCAR-8 14.7 µM | OVCAR-3 2.82 µM | U-251 17.7 µM

Nc1nc(SCC(=O)O)nc(O)c1N
inactive: NCI-H460 > 100 µM | Malme-3M > 100 µM | MOLT-4 37.6 µM | SF-539 > 100 µM | M14 > 100 µM | DU-145 > 100 µM | MDA-MB-435 32.3 µM | RXF 393 > 100 µM | HOP-62 > 100 µM | SK-MEL-5 > 100 µM | NCI-H23 > 100 µM | LOX IMVI 20.9 µM | IGROV-1 > 100 µM | UACC-62 > 100 µM | OVCAR-8 78.5 µM | OVCAR-3 > 100 µM | U-251 > 100 µM

Fc1ccc(Nc2nc(Cl)c3nc[nH]c3n2)cc1Cl
inactive: NCI-H460 58.9 µM | Malme-3M > 100 µM | MOLT-4 > 100 µM | SF-539 45.5 µM | M14 > 100 µM | DU-145 87.3 µM | MDA-MB-435 > 100 µM | HOP-62 61.8 µM | SK-MEL-5 > 100 µM | HCC 2998 32.9 µM | NCI-H23 79.6 µM | LOX IMVI 75.3 µM | IGROV-1 84.9 µM | UACC-62 > 100 µM | OVCAR-8 24.9 µM | OVCAR-3 > 100 µM | U-251 74.6 µM

CC1=C(CCC(C)CO)O[C@H]2C[C@H]3[C@@H]4CC[C@H]5C[C@@H](O)CC[C@]5(C)[C@H]4CC(=O)[C@]3(C)[C@@H]12 (stereo partly specified)
inactive: NCI-H460 6.87 µM | Malme-3M 19.1 µM | MOLT-4 3.61 µM | SF-539 19.2 µM | M14 10.6 µM | DU-145 20.6 µM | MDA-MB-435 18.9 µM | RXF 393 29.1 µM | HOP-62 9.27 µM | SK-MEL-5 8.18 µM | NCI-H23 14.9 µM | LOX IMVI 12.7 µM | IGROV-1 12.6 µM | UACC-62 6.17 µM | OVCAR-8 11.7 µM | OVCAR-3 4.94 µM | U-251 18 µM

CCCC(=O)N1CCN(c2ccc3c(c2)OC(C)O3)CC1 (stereo unspecified)
inactive: NCI-H460 > 100 µM | Malme-3M > 100 µM | MOLT-4 > 100 µM | SF-539 > 100 µM | M14 > 100 µM | DU-145 > 100 µM | MDA-MB-435 > 100 µM | RXF 393 > 100 µM | HOP-62 > 100 µM | SK-MEL-5 > 100 µM | HCC 2998 > 100 µM | NCI-H23 > 100 µM | IGROV-1 > 100 µM | UACC-62 > 100 µM | OVCAR-8 > 100 µM | OVCAR-3 > 100 µM | U-251 > 100 µM

O=C(O)c1cscc1Cc1cccs1
inactive: NCI-H460 > 100 µM | Malme-3M > 100 µM | MOLT-4 > 100 µM | SF-539 > 100 µM | M14 > 100 µM | DU-145 > 100 µM | MDA-MB-435 > 100 µM | RXF 393 > 100 µM | HOP-62 > 100 µM | SK-MEL-5 > 100 µM | NCI-H23 > 100 µM | LOX IMVI > 100 µM | IGROV-1 > 100 µM | UACC-62 > 100 µM | OVCAR-8 > 100 µM | OVCAR-3 > 100 µM | U-251 > 100 µM
